We go through seven compounds from patent publication US9670147B2, “Antioxidant inflammation modulators: oleanolic acid derivatives with amino and other modifications at C-17” (REATA PHARMACEUTICALS, INC., priority 2008, dated 2017).

pIC50: −log10 of the molar value. Bounds are passed on as bounds.

Test [1] concerns IFNγ-induced NO production in RAW264.7 macrophages. Put plainly: Suppression of IFNγ-induced NO production (Griess reagent). It is filed as cell-based, mouse. The settings on record: Mus musculus, 2 h pre-treatment, then 20 ng/ml IFNγ for 24 hours. On the procedure:
(§1) FIGS. 1-34. Inhibition of NO Production. RAW264.7 macrophages were pre-treated with DMSO or drugs at various concentrations (nM) for 2 hours, then treated with 20 ng/ml IFNγ for 24 hours. NO concentration in media was determined using the Griess reagent system; cell viability was determined using WST-1 reagent. FIGS. 49-52. Inhibition of NO Production. RAW264.7 macrophages were pre-treated with DMSO or drugs at various concentrations (nM) for 2 hours, then treated with 20 ng/ml IFNγ for 24 hours. NO concentration in media was determined using the Griess reagent system; cell viability was determined using WST-1 reagent. RAW264.7 macrophages were pre-treated with DMSO or drugs for 2 hours, then treated with recombinant mouse IFNγ (Sigma) for 24 hours. NO concentration in media was determined using the Griess reagent system (Promega). Cell viability was determined using WST-1 reagent (Roche).
On the technique in general: Nitrite, measured by Griess reagent, commonly stands in for NO production.

The subject of test [2] is iNOS. Put plainly: Suppression of iNOS mRNA induction, qPCR. It is filed as cell-based, mouse. To be noted: RAW264.7; 2 h pre-treatment, 10 ng/ml IFNγ for 2 hours. The procedure: FIG. 35. Suppression of iNOS mRNA induction. RAW264.7 mouse macrophages were pre-treated for 2 hours with compounds at the indicated concentrations and subsequently stimulated with 10 ng/ml IFNγ for an additional 2 hours. mRNA levels of iNOS were quantified by qPCR and are shown relative to the vehicle-treated IFNγ-stimulated sample which was normalized to a value of 1. Values are averages of duplicate PCR reactions, each with triplicate wells.
FIG. 36. Suppression of iNOS mRNA induction. RAW264.7 mouse macrophages were pre-treated for 2 hours with compounds at the indicated concentrations and subsequently stimulated with 10 ng/ml IFNγ for an additional 2 hours. mRNA levels of iNOS were quantified by qPCR and are shown relative to the vehicle-treated IFNγ-stimulated sample which was normalized to a value of 1. Values are averages of duplicate PCR reactions, each with triplicate wells.
FIG. 37. Suppression of iNOS mRNA induction. RAW264.7 mouse macrophages were pre-treated for 2 hours with compounds at the indicated concentrations and subsequently stimulated with 10 ng/ml IFNγ for an additional 2 hours. mRNA levels of iNOS were quantified by qPCR and are shown relative to the vehicle-treated IFNγ-stimulated sample which was normalized to a value of 1. Values are averages of duplicate PCR reactions, each with triplicate wells.
RAW264.7 mouse macrophage cells were pre-treated for 2 hours with compounds at the indicated concentrations and subsequently stimulated with 10 ng/ml IFNγ for an additional 2 hours. mRNA levels of iNOS were quantified by qPCR and are shown relative to the vehicle-treated IFNγ-stimulated sample which was normalized to a value of 1. Values are averages of duplicate PCR reactions, each with triplicate wells.
For orientation: In qPCR the cycle at which signal appears reflects the starting amount.

In test [3] the test system is HO-1. Kind of test: Nrf2 target gene induction in MDA-MB-435 cells, qPCR: HO-1. It counts as cell-based, human. The settings on record: 16 hours. The procedure: FIG. 43. Induction of HO-1. FIGS. 43A and 43B: MDA-MB-435 human melanoma cells were treated with vehicle (DMSO) or the indicated compounds and concentrations for 16 hours. HO-1 mRNA levels were quantified using qPCR and were normalized relative to a DMSO-treated sample run in parallel. Values are averages of duplicate wells. FIG. 43C: MDA-MB-435 cells were treated with vehicle (DMSO) or the indicated compounds at 400 nM for 16 hours. HO-1, TrxR1 and actin protein levels were assayed by immunoblotting. Actin served as a loading control.
(§2) FIGS. 44, 46 and 47—Induction of HO-1, TrxR1 and γ-GCS. FIGS. 44A-C, 46A-C, 47A-C: MDA-MB-435 human melanoma cells were treated with vehicle (DMSO) or the indicated compounds (400 nM) for 16 hours. HO-1, thioredoxin reductase-1 (TrxR1), and γ-glutamylcysteine synthetase (γ-GCS) mRNA levels were quantified using qPCR and were normalized relative to a DMSO-treated sample run in parallel. Values are averages of duplicate wells. FIGS. 44D, 46D, 47D: MDA-MB-435 cells were treated with vehicle (DMSO) or the indicated compounds at 400 nM for 16 hours. HO-1, TrxR1 and actin protein levels were assayed by immunoblotting.
(§3) FIG. 45. Induction of HO-1, TrxR1 and γ-GCS. FIGS. 45 A-C: MDA-MB-435 cells were treated with vehicle (DMSO) or the indicated compounds at 160 nM for 16 hours. HO-1, TrxR1, and γ-GCS mRNA levels were quantified by qPCR and were normalized relative to a DMSO-treated sample run in parallel. Values are averages of duplicate wells. FIGS. 44D, 46D, 47D: MDA-MB-435 cells were treated with vehicle (DMSO) or the indicated compounds at 160 nM for 16 hours. HO-1, TrxR1 and actin protein levels were assayed by immunoblotting.
(§4) MDA-MB-435 human melanoma cells were treated with vehicle (DMSO) or the indicated compounds and concentrations for 16 hours. HO-1, thioredoxin reductase-1 (TrxR1), γ-glutamylcysteine synthetase (γ-GCS), and ferritin heavy chain mRNA levels were quantified using qPCR and were normalized relative to a DMSO-treated sample run in parallel. Values are averages of duplicate wells. Primer sequences are as follows.

The test system of test [4] is iNOS. Put plainly: iNOS Western blot in RAW264.7 mouse macrophages. It is filed as cell-based. The settings on record: compounds at 300 nM for 2 hours, 24 hour induction by IFNγ, read-out: iNOS suppr. WB. On the procedure:
FIGS. 38-40. iNOS Western Blot in RAW264.7 mouse macrophages. Cells were pretreated by compounds at 300 nM for 2 hours, followed by 24 hour induction by IFNγ (20 ng/ml). […]
A general note: A western blot detects proteins with antibodies after separation by electrophoresis.

The subject of test [5] is RAW264.7 macrophages. Kind of test: Cell viability, WST-1 reagent. It counts as cell-based, mouse. The settings on record: Mus musculus, 2 h pre-treatment, then 20 ng/ml IFNγ for 24 hours. On the procedure:
as §1

The test system of test [6] is TrxR1. Put plainly: Nrf2 target gene induction in MDA-MB-435 cells, qPCR: TrxR1. It counts as cell-based, human. The settings on record: 16 hours. On the procedure: as §2, §3, §4
The subject of test [7] is γ-GCS. Put plainly: Nrf2 target gene induction in MDA-MB-435 cells, qPCR: γ-GCS. It counts as cell-based, human. The settings on record: 16 hours. The procedure:
as §2, §3, §4

As to `COC(=O)N[C@]12CCC(C)(C)C[C@H]1[C@H]1C(=O)C=C3[C@@]4(C)C=C(C#N)C(=O)C(C)(C)[C@@H]4CC[C@@]3(C)[C@]1(C)CC2` [Compound 63167, methyl-(4aS,6aR,6bS,8aR,12aS,14aR,14bS)-11-cyano-2,2,6a,6b,9,9,12a-heptamethyl-10,14-dioxo-1,2,3,4,4a,5,6,6a,6b,7,8,8a,9,10,12a,14,14a,14b-octadecahydropicen-4a-ylcarbamate], the pIC50 (as a rule, the negative decadic logarithm of the IC50, by convention in mol/L) in test [1] was 8.70; in test [5], 6.74. Moreover, the “iNOS suppr. qPCR” value in test [2] was around 50%. For the same compound, in test [3] (400 nM), the HO-1 induction is on record as 61% of induction observed for RTA 402. The inhibition at 0.3 µM in test [4] was around 90%. Moreover, in test [6] (400 nM), the TrxR1 induction was 62% of induction observed for RTA 402.

In the case of `CC1(C)CC[C@]2(N)CC[C@]3(C)[C@H](C(=O)C=C4[C@@]5(C)C=C(C#N)C(=O)C(C)(C)[C@@H]5CC[C@]43C)[C@@H]2C1` [Compound 63169, (4aR,6aS,6bR,8aS,12aS,12bR,14bS)-8a-amino-4,4,6a,6b,11,11,14b-heptamethyl-3,13-dioxo-3,4,4a,5,6,6a,6b,7,8,8a,9,10,11,12,12a,12b,13,14b-octadecahydropicene-2-carbonitrile], the pIC50 in test [1] is 8.44; in test [5], below 6.70. In addition, the “iNOS suppr. qPCR” value in test [2] is around 50%. The HO-1 induction in test [3] (160 nM) is 2% of induction observed for RTA 402. In addition, the inhibition at 0.3 µM in test [4] is around 90%. Moreover, the γ-GCS induction in test [7] (160 nM) is on record as 73% of induction observed for RTA 402. For the same compound, the TrxR1 induction in test [6] (160 nM) is 129% of induction observed for RTA 402.

As to `CC1(C)CC[C@]2(NS(C)(=O)=O)CC[C@]3(C)[C@H](C(=O)C=C4[C@@]5(C)C=C(C#N)C(=O)C(C)(C)[C@@H]5CC[C@]43C)[C@@H]2C1` [Compound 63175, N-((4aS,6aR,6bS,8aR,12aS,14aR,14bS)-11-cyano-2,2,6a,6b,9,9,12a-heptamethyl-10,14-dioxo-1,2,3,4,4a,5,6,6a,6b,7,8,8a,9,10,12a,14,14a,14b-octadecahydropicen-4a-yl)methanesulfonamide], the pIC50 in test [1] is 8.70; in test [5] it was 6.70. The “iNOS suppr. qPCR” value in test [2] is around 65%. The HO-1 induction in test [3] (160 nM) is 15% of induction observed for RTA 402; in test [3] (400 nM) it was 10% of induction observed for RTA 402. Besides, the inhibition at 0.3 µM in test [4] was around 90%. In test [7] (160 nM), the γ-GCS induction is 64% of induction observed for RTA 402. Besides, the TrxR1 induction in test [6] (160 nM) is listed as 86% of induction observed for RTA 402; in test [6] (400 nM) it was 48% of induction observed for RTA 402.

For `C=CC(=O)N[C@]12CCC(C)(C)C[C@H]1[C@H]1C(=O)C=C3[C@@]4(C)C=C(C#N)C(=O)C(C)(C)[C@@H]4CC[C@@]3(C)[C@]1(C)CC2` [Compound 63183, N-((4aS,6aR,6bS,8aR,12aS,14aR,14bS)-11-cyano-2,2,6a,6b,9,9,12a-heptamethyl-10,14-dioxo-1,2,3,4,4a,5,6,6a,6b,7,8,8a,9,10,12a,14,14a,14b-octadecahydropicen-4a-yl)acrylamide], the pIC50 in test [1] was 8.40; in test [5] it was 6.82. For the same compound, the “iNOS suppr. qPCR” value in test [2] is recorded as 50%. The HO-1 induction in test [3] (160 nM) is recorded as 28% of induction observed for RTA 402. Further, in test [4], the inhibition at 0.3 µM is around 90%. For the same compound, the γ-GCS induction in test [7] (160 nM) is reported as 55% of induction observed for RTA 402. In addition, the TrxR1 induction in test [6] (160 nM) was 71% of induction observed for RTA 402.

Take `CC1(C)CC[C@]2(NC(=O)N3CCC(O)CC3)CC[C@]3(C)[C@H](C(=O)C=C4[C@@]5(C)C=C(C#N)C(=O)C(C)(C)[C@@H]5CC[C@]43C)[C@@H]2C1` [Compound 63185, N-((4aS,6aR,6bS,8aR,12aS,14aR,14bS)-11-cyano-2,2,6a,6b,9,9,12a-heptamethyl-10,14-dioxo-1,2,3,4,4a,5,6,6a,6b,7,8,8a,9,10,12a,14,14a,14b-octadecahydropicen-4a-yl)-4-hydroxypiperidine-1-carboxamide]: the pIC50 in test [1] is 7.04; in test [5], below 6.70. The “iNOS suppr. qPCR” value in test [2] was 0%. Besides, the HO-1 induction in test [3] (160 nM) is reported as 1% of induction observed for RTA 402. In test [4], the inhibition at 0.3 µM is 0%. For the same compound, the γ-GCS induction in test [7] (160 nM) is 27% of induction observed for RTA 402. Besides, the TrxR1 induction in test [6] (160 nM) is 71% of induction observed for RTA 402.

With `CC1(C)CC[C@]2(NS(=O)(=O)c3ccccc3)CC[C@]3(C)[C@H](C(=O)C=C4[C@@]5(C)C=C(C#N)C(=O)C(C)(C)[C@@H]5CC[C@]43C)[C@@H]2C1` [Compound 63192, N-((4aS,6aR,6bS,8aR,12aS,14aR,14bS)-11-cyano-2,2,6a,6b,9,9,12a-heptamethyl-10,14-dioxo-1,2,3,4,4a,5,6,6a,6b,7,8,8a,9,10,12a,14,14a,14b-octadecahydropicen-4a-yl)benzenesulfonamide], the negative-log IC50 (pIC50) is 8.55 in test [1] and 6.82 in test [5]. For the same compound, the “iNOS suppr. qPCR” value in test [2] is around 60%. Besides, in test [3] (160 nM), the HO-1 induction was 1% of induction observed for RTA 402. For the same compound, in test [4], the inhibition at 0.3 µM was above 90%. Moreover, the γ-GCS induction in test [7] (160 nM) is on record as 9% of induction observed for RTA 402. In addition, the TrxR1 induction in test [6] (160 nM) is 14% of induction observed for RTA 402.

As to `CC1(C)CC[C@]2(NS(=O)(=O)CC(F)(F)F)CC[C@]3(C)[C@H](C(=O)C=C4[C@@]5(C)C=C(C#N)C(=O)C(C)(C)[C@@H]5CC[C@]43C)[C@@H]2C1` [Compound 63247, N-((4aS,6aR,6bS,8aR,12aS,14aR,14bS)-11-cyano-2,2,6a,6b,9,9,12a-heptamethyl-10,14-dioxo-1,2,3,4,4a,5,6,6a,6b,7,8,8a,9,10,12a,14,14a,14b-octadecahydropicen-4a-yl)-2,2,2-trifluoroethanesulfonamide], the pIC50 in test [1] was around 8.70; in test [5], 6.82. The HO-1 induction in test [3] (400 nM) is 19% of induction observed for RTA 402. Moreover, the inhibition at 0.3 µM in test [4] was above 90%. The γ-GCS induction in test [7] (400 nM) is on record as 75% of induction observed for RTA 402. Further, the TrxR1 induction in test [6] (400 nM) was 76% of induction observed for RTA 402.
